Data taken from US10865203B2, “Ligands selective to alpha 6 subunit-containing GABAA receptors and their methods of use” (UWM Research Foundation, Inc., priority 2015, dated 2020).
Values after ≈ are worked out from the molar mass of the structure shown.

Tests used:
[1] = Microsomal stability assay, mouse liver microsomes; assay type: in vitro ADME; details: 10 μM test compound, 0.5 mg/mL protein, 37° C.; for half-life at 10 μM: mouse, liver microsomes, pH 7.4, read-out: Half-life (min) (MLM)
Method: (§1) 4 μL of 1 mM test compound at a final concentration of 10 μM dissolved in DMSO/ACN/Methanol/Ethanol was preincubated at 37° C. for 5 minutes on a digital heating shaking dry bath (Fischer scientific, Pittsburgh, Pa.) in a mixture containing 282 μL of water, 80 μL of phosphate buffer (0.5 M, pH 7.4), 20 μL of NADPH Regenerating System Solution A (BD Bioscience, San Jose, Calif.) and 4 μL of NADPH Regenerating System Solution B (BD Bioscience, San Jose, Calif.) in a total volume of 391.2 μL. Following preincubation, the reaction was initiated by addition of 8.8 μL of either human liver microsomes (BD Gentest, San Jose, Calif.), mouse liver microsomes (Life technologies, Rockford, Ill.), at a protein concentration of 0.5 mg/mL. Aliquots of 50 μL were taken at time intervals of 0 (without microsomes), 10, 20, 30, 40, 50 and 60 minutes. Each aliquot was added to 100 μL of cold acetonitrile solution containing 1 μM/2 μM internal standard. This was followed by sonication for 10 seconds and centrifugation at 10,000 rpm for 5 minutes. 100 μL of the supernatant was transferred into Spin-X HPLC filter tubes (Corning Incorporated, NY) and centrifuged at 13,000 rpm for 5 minutes. […] The ratio of the peak areas of the internal standard and test compound was calculated for every time point and the natural log of the ratio were plotted against time to determine the linear slope (k). […] All experiments were repeated three times in duplicates.

[2] = Solubility of compounds in DI water; assay type: physicochemical; details: thermodynamic from solid; 2 mg in 2 mL DI water, sonicated at 60° C. for 2 hours, cooled to room temperature, filtered
Method: The solubility of the compounds was examined by sonicating 2 mg of each respective compound in 2 mL of DI water at 60° C. for 2 hours. Solutions were cooled to room temperature and then filtered using a syringe filter. The resultant solutions were injected into a mass spectrometer using a SIM method, calibrated to the respective retention times and mass units of each compound. Calibration curves using standard solutions (5 data points) of each compound dissolved in methanol were used to calculate the unknown aqueous concentrations of each compound.

HEPG2 cell line = assay: Cytotoxicity study, CellTiter-Glo cell viability; assay type: cell-based, Human; details: HEPG2, 48 hours incubation
Method: Reagents and Instrumentation: Human liver hepatocellular carcinoma (HEPG2) cell line was purchased (ATCC) and cultured in 75 cm2 flasks (CellStar). Cells were grown in DMEM/High Glucose (Hyclone, #SH3024301) media to which non-essential amino acids (Hyclone, #SH30238.01), 10 mM HEPES (Hyclone, #SH302237.01), 5×106 units of penicillin and streptomycin (Hyclone, #SV30010), and 10% of heat inactivated fetal bovine serum (Gibco, #10082147) were added. Cells were harvested using 0.05% Trypsin (Hyclone, #SH3023601), which disrupts the cell monolayer and proteolytically cleaves the bonds between the cells and flask. The cell viability assay was evaluated using CellTiter-Glo™ Luminescent Cell Viability Assay Kit (Promega, Madison, Wis.) which contains luciferase and all its substrate except ATP. The controls for the cytotoxicity assay used were (E)-10-(bromotriphenylphosphoranyl)decyl 4-(4-(tert-butyl)phenyl)-4-oxobut-2-enoate (400 μM in DMSO, positive control) and DMSO (negative control). Cell culture was performed in a Baker Company Class II Biological Safety Cabinet. All luminescence readings were performed on a Tecan Infinite M1000 plate reader. Small volume transfers were performed on the Tecan Freedom EVO liquid handling system with a 100 nL pin tool transfer (V&P Scientific). Serial dilutions were done in 96-well polypropylene plates (Corning, #3365) and assays were conducted in 384-well white optical bottom plates.
Luminescence-Based VDR-Mediated Transcription Assay Protocol: After 48 hours of incubation at 37 °C with 5% CO2, the cells were harvested with 4 mL of 0.05% Trypsin, added to 10 mL of the assay buffer, DMEM/High Modified buffer without phenol red, and spun down for 3 minutes at 1000 rpm. The media was removed and cells were resuspended in the DMEM assay media. To each well, 40 μL of cells were added to yield a final concentration of 15,000 cells per well. The plates were then spun down for 2 minutes at 1000 rpm. After 2 hours, plated cells were treated with 100 nL×4 of small molecules and controls which were added using the pin tool. After 48 hours of incubation at 37 °C with 5% CO2, 20 μL of Cell Titer-Glo™ Luminescence Assay Kit (cytotoxicity assay) were added and luminescence was read. Controls were measured within each plate to determine the z′ factor (Equation 1) and to enable data normalization. Three independent experiments were performed in quadruplicate and data was analyzed using nonlinear regression with variable slope (GraphPrism, Equation 2). The luminescence intensity of control (untreated) cells was taken as 100% viability, and the relative cell viability compared to control was calculated. Data are presented as the means±SEM of a series of three experiments.

[3] = Microsomal stability assay, human liver microsomes; assay type: in vitro ADME; details: 10 μM test compound, 0.5 mg/mL protein, 37° C.
Method: as §1

[4] = tested on: METH-impaired PPI in C57/B6 mice; assay: PPI test, methamphetamine-impaired prepulse inhibition; assay type: in vivo, mouse; details: mice, compound 10 mg/kg i.p. 15 min before METH 2 mg/kg i.p.
Method: All animal experiments conducted at NTU were approved by the Institutional Animal Care and Use Committee of College of Medicine, National Taiwan University. C57/B6 (8-10 weeks) mice were used for the PPI test and Wistar rats (8-9 weeks) were used in the migraine model. Animals were housed in an animal room with a 12-h light/12-h dark cycle and free access to food and water.
The PPI test was conducted with a PPI apparatus (SR-LAB, San Diego Instruments, San Diego, Calif.) consisting of a startle chamber equipped with various programming acoustic stimulations. After acclimation, the mouse was gently placed in the startle chamber for a 4 min acclimation period with a background noise of 65 dB, which continued throughout the whole PPI test session. One PPI test session consisted of 4 types of startle trials, including the trial with the startle pulse (115 dB) alone (PULSEALONE; 115 dB, 20 ms), two trials with the startle pulse paired with 71 and 77 dB prepulses, respectively (PREPULSE+PULSE; 71 dB+115 dB and 77 dB+115 dB), and the trial without stimulus (NOSTIM; background 65 dB only). A test session started and ended, respectively, with four NOSTIM trials and four PULSEALONE trials. In between, each of the four types of trials was presented 14 times randomly, that is, 56 trials were given in a test session. The intertrial interval was given randomly from 5 to 20 s. In the PREPULSE+PULSE trial, a 71 or 77 dB prepulse was given 120 ms before the 115 dBpulse. The magnitude of PPI (PPI %) was determined, after summarizing the startle responses in PULSEALONE and PREPULSE+PULSE trials, according to the equation (PULSEALON−PREPULSE+PULSE)/PULSEALONE×100%. The tested compound or vehicle was given to the animal for 15 min, followed by methamphetamine (2 mg/kg). The PPI test was conducted 10 min after injection of methamphetamine. Data were expressed as the mean±S.E.M. Statistical comparisons among groups were analyzed by ANOVA with Tukey post hoc test, and differences between groups were analyzed by Student's t-test. Two-way ANOVA with Bonferroni's post hoc test was used to analyze differences in the time courses of locomotor activity among groups. Differences were considered significant if P<0.05.
Methamphetamine and apomorphine were dissolved in normal saline for i.p. And s.c. Injections, respectively. Tested compounds and haloperidol, when given by i.p. Injection, were dissolved in a vehicle containing 20% dmso, 20% Cremophor® el (polyoxyethylene castor, sigma-aldrich) and 60% normal saline. Furosemide was dissolved (20 nmole/μL) in dimethylsulfoxide for intra-cerebellar microinjection the i.p. or s.c. Injection volume was 10 mL/kg.

[5] = Half-life in liver microsomes (Example 4); assay type: in vitro ADME; details: rat and human liver microsomes, species of the value not stated
From the text: Metabolic pathways that may disrupt the activity of compounds with aryl methoxy groups were investigated.

SMILES | % left after 1 hr. (MLM) [1] [%] | half-life at 10 μM [1] [min] | solubility at 2 h [2] [µg/mL] | toxicity at 400 μM (HEPG2 cell line) | % left after 1 hr. (HLM) [3] [%] | Half-life (min) (HLM) [3] | rescue of METH-impaired PPI [4] | Half-life (min) (MLM) [1] | half-life [5] [h] | rescue of METH-impaired PPI ([4]; listed as 1-29) | half-life at 10 μM ([3]; human, liver microsomes, pH 7.4, read-out: Half-life (min) (HLM))
[2H]C([2H])([2H])Oc1ccc(-n2nc3c4ccc(Br)cc4[nH]cc-3c2=O)cc1 [DK-I-58-1, 7-Bromo-2-(4-methoxy-d3-phenyl)-2,5-dihydro-3H-pyrazolo[4,3-c]quinolin-3-one] | 73.8 ± 0.15 | 140 ± 7.18 | 9.2 (≈ 24.7 µM) | non-toxic | 81.5 ± 0.11 | 204.6 ± 10 |  |  |  |  | 
[2H]C([2H])([2H])Oc1cccc(-n2nc3c4cc(Cl)ccc4[nH]cc-3c2=O)c1 [DK-I-59-1, 8-Chloro-2-(3-methoxy-d3-phenyl)-2,5-dihydro-3H-pyrazolo[4,3-c]quinolin-3-one] | 76.6 ± 0.11 | 166 ± 7.5 |  | non-toxic | 93 ± 0.09 | 649 ± 81 | effective |  |  |  | 
[2H]C([2H])([2H])Oc1ccc(-n2nc3c4ccc(OC([2H])([2H])[2H])cc4[nH]cc-3c2=O)cc1 [DK-I-60-3, 7-Methoxy-d3-2-(4-methoxy-d3-phenyl)-2,5-dihydro-3H-pyrazolo[4,3-c]quinolin-3-one] | 93.08 ± 0.19 |  | 16 (≈ 48.9 µM) | non-toxic | 91.51 ± 0.18 | 780.73 ± 238 |  | 846.85 ± 276 |  |  | 
COc1ccc(-n2nc3c4ccc(Br)cc4[nH]cc-3c2=O)cn1 [DK-II-48-1, 7-Bromo-2-(6-methoxypyridin-3-yl)-2,5-dihydro-3H-pyrazolo[4,3-c]quinolin-3-one] | 93.12 ± 0.22 |  |  | non-toxic | 93.4 ± 0.11 | 727.7 ± 115 |  | 680.6 ± 114 |  |  | 
[2H]C([2H])([2H])Oc1ccc2c3nn(-c4ccc(OC)cc4)c(=O)c-3c[nH]c2c1 [RV-I-029, 7-Methoxy-d3-2-(4-methoxyphenyl)-2,5-dihydro-3H-pyrazolo[4,3-c]quinolin-3-one] | 93.17 ± 016 |  |  |  | 95.35 ± 1 |  |  | 857.8 ± 235 | > 50 | effective | 2970 ± 742
